Laboratory results from patent EP0184291B1, “Polyether antibiotic A80190” (ELI LILLY AND COMPANY, priority 1984, dated 1986).

Legend:
NRRL 15878 = experiment: Resistance to antibiotics, sensitivity discs on seeded ISP No. 2 agar; assay type: cell-based, Actinomadura oligospora
Procedure: (§1) Resistance to antibiotics was measured by padding antibiotic sensitivity discs onto the surface of seeded ISP No. 2 agar plates.
(§2) Table III lists the resistance of the strain to various antibiotics at the concentrations indicated and compares it to that of A. macra.

A. macra = experiment: as above; assay type: cell-based
Procedure: as §1, §2

[1] = tested on: Eimeria acervulina (Lilly strain 59), Eimeria maxima (strain FS-177) and Eimeria tenella (strain FS-155); experiment: Coccidiosis test in broiler chicks, A80190 with nicarbazin (Test 1); assay type: in vivo; settings: A80190 0 p.p.m. in ration

For `CC(=O)OCC1=C(C(=O)O)N2C(=O)[C@@H](NC(=O)Cc3cccs3)[C@H]2SC1` [Cephalothin], the “Resistance to Antibiotics” value (NRRL 15878; Concentration 30 µg) was “+”.
With `CCC[C@@H]1C[C@@H](C(=O)N[C@@H]([C@H]2O[C@H](SC)[C@H](O)[C@@H](O)[C@H]2O)[C@@H](C)O)N(C)C1` [Lincomycin] the “Resistance to Antibiotics” value (NRRL 15878; Concentration 2 µg) was “+” and the “Resistance to Antibiotics” value (A. macra; Concentration 2 µg) was “+”.
`NC[C@@H]1O[C@H](O[C@H]2[C@@H](O)[C@H](O[C@@H]3[C@@H](O)[C@H](N)C[C@H](N)[C@H]3O[C@H]3O[C@H](CN)[C@@H](O)[C@H](O)[C@H]3N)O[C@@H]2CO)[C@H](N)[C@@H](O)[C@@H]1O` [Neomycin] was tested, and the “Resistance to Antibiotics” value (NRRL 15878; Concentration 30 µg) was “-” and the “Resistance to Antibiotics” value (A. macra; Concentration 30 µg) was “-”.
With `CO[C@H]1C[C@H](O[C@H]2[C@H](C)[C@@H](O[C@@H]3O[C@H](C)C[C@H](N(C)C)[C@H]3O)[C@@H](C)C[C@@]3(CO3)C(=O)[C@H](C)[C@@H](O)[C@@H](C)[C@@H](C)OC(=O)[C@@H]2C)O[C@@H](C)[C@@H]1O` [Oleandomycin] the “Resistance to Antibiotics” value (NRRL 15878; Concentration 15 µg) was “-”.
With `CC1(C)S[C@@H]2[C@H](NC(=O)Cc3ccccc3)C(=O)N2[C@H]1C(=O)O` [Pencillin G] the “Resistance to Antibiotics” value (NRRL 15878; Concentration 10 units) was “+”.
For `CO[C@H]1/C=C/O[C@@]2(C)Oc3c(C)c(O)c4c(O)c(c(/C=N/N5CCN(C)CC5)c(O)c4c3C2=O)NC(=O)/C(C)=C\C=C\[C@H](C)[C@H](O)[C@@H](C)[C@@H](O)[C@@H](C)[C@H](OC(C)=O)[C@@H]1C` [Rifampin], the “Resistance to Antibiotics” value (NRRL 15878; Concentration 5 µg) was “+”.
In the case of `[H]/N=C(/N)N[C@H]1[C@H](O)[C@@H](O)[C@H](O[C@@H]2O[C@@H](C)[C@](O)(C=O)[C@H]2O[C@@H]2O[C@@H](CO)[C@H](O)[C@@H](O)[C@@H]2NC)[C@@H](N/C(N)=N\[H])[C@@H]1O` [Streptomycin], the “Resistance to Antibiotics” value (NRRL 15878; Concentration 10 µg) is reported as “-”.
With `CN(C)[C@@H]1C(O)=C(C(N)=O)C(=O)[C@@]2(O)C(O)=C3C(=O)c4c(O)cccc4[C@@](C)(O)[C@H]3C[C@@H]12` [Tetracycline] the “Resistance to Antibiotics” value (NRRL 15878; Concentration 30 µg) was “-”.
`NC[C@H]1O[C@H](O[C@H]2[C@H](O)[C@@H](O[C@H]3O[C@H](CO)[C@@H](O)[C@H](N)[C@H]3O)[C@H](N)C[C@@H]2N)[C@H](N)C[C@@H]1O` [Tobramycin] was tested, and the “Resistance to Antibiotics” value (NRRL 15878; Concentration 10 µg) was “-” and the “Resistance to Antibiotics” value (A. macra; Concentration 10 µg) was “-”.
For Nicarbazin [reference compound], the “CECAL LESION SCORES” value ([1]; Nicarbazin 20 p.p.m.) was 3.19, the “INTESTINAL LESION SCORES” value ([1]; Nicarbazin 20 p.p.m.) was 9.13 and the “WEIGHT GAIN” value ([1]; Nicarbazin 20 p.p.m.) was 159 grams/per chicken. For the same compound, the “CECAL LESION SCORES” value ([1]; Nicarbazin 30 p.p.m.) was 3.50, the “INTESTINAL LESION SCORES” value ([1]; Nicarbazin 30 p.p.m.) was 8.88 and the “WEIGHT GAIN” value ([1]; Nicarbazin 30 p.p.m.) was 174 grams/per chicken. The “CECAL LESION SCORES” value ([1]; Nicarbazin 40 p.p.m.) was 3.17, the “INTESTINAL LESION SCORES” value ([1]; Nicarbazin 40 p.p.m.) was 8.90 and the “WEIGHT GAIN” value ([1]; Nicarbazin 40 p.p.m.) was 211 grams/per chicken. The “CECAL LESION SCORES” value ([1]; Nicarbazin 50 p.p.m.) was 3.19, the “INTESTINAL LESION SCORES” value ([1]; Nicarbazin 50 p.p.m.) was 8.56 and the “WEIGHT GAIN” value ([1]; Nicarbazin 50 p.p.m.) was 222 grams/per chicken. The “CECAL LESION SCORES” value ([1]; Nicarbazin 125 p.p.m.) was 0.33, the “INTESTINAL LESION SCORES” value ([1]; Nicarbazin 125 p.p.m.) was 0.08 and the “WEIGHT GAIN” value ([1]; Nicarbazin 125 p.p.m.) was 279 grams/per chicken.
